ChEMBL document CHEMBL5331122, “Structure-Activity Relationship Study of Antimicrobial Peptide PE2 Delivered Novel Linear Derivatives with Potential of Eradicating Biofilms and Low Incidence of Drug Resistance” (J Med Chem, 2023)
In brackets after ≈: the same amount, converted by molar mass. Activity calls are given as the source filed them. The rule behind the calls is not given here.

Columns and labels:
Cell membrane [1] = experiment: Induction of cell membrane damage in Staphylococcus aureus ATCC 25923 at 2 times MIC measured at 30 mins by propidium iodide staining based flow cytometer assay; assay type: subcellular
Staphylococcus aureus [2] = experiment: Antibacterial activity against gentamycin-resistant Staphylococcus aureus ATCC 25923 assessed as reduction in bacterial growth incubated for 18 hrs by broth microdilution method; assay type: functional
Cell membrane [3] = experiment: Induction of cell membrane damage in Staphylococcus aureus ATCC 25923 at 2 times MIC after 0.5 to 2 hrs by propidium iodide staining based flow cytometer assay; assay type: subcellular; conditions: time 0.5-2 hrs
Escherichia coli [4] = experiment: Bactericidal activity against Escherichia coli ATCC 25922 assessed as inhibition of bacterial growth at 2 times MIC measured upto 360 mins by time-kill assay; assay type: functional, organism-based
Escherichia coli [5] = experiment: Antibacterial activity against rifampicin-resistant Escherichia coli ATCC 25922 assessed as reduction in bacterial growth incubated for 18 hrs by broth microdilution method; assay type: functional
Cell membrane [6] = experiment: Induction of cell membrane damage in Escherichia coli ATCC 25922 at 2 times MIC after 0.5 to 2 hrs by propidium iodide staining based flow cytometer assay; assay type: subcellular; conditions: time 0.5-2 hrs
Escherichia coli [7] = experiment: Inhibition of biofilm formation in Escherichia coli ATCC 25922 assessed as inhibition of biofilm formation at 1 to 2 times MIC incubated for 24 hrs by crystal violet staining based analysis; assay type: functional, organism-based
Erythrocyte = experiment: Hemolytic activity in mouse red blood cell assessed as hemolysis incubated for 1 hr; assay type: toxicity, cell-based; conditions: dose 4-256 µg/ml
Escherichia coli [8] = experiment: Additive antibacterial activity against rifampicin-resistant Escherichia coli ATCC 25922 incubated for 18 hrs by checkerboard assay; assay type: functional, organism-based
Klebsiella pneumoniae [9] = experiment: Antibacterial activity against Klebsiella pneumoniae ATCC 700603 infected in BALB/c mouse pneumonia model at 5 to 10 mg/kg, ip measured at 4 to 12 hrs; assay type: functional, organism-based; conditions: dose 5-10 mg/kg, time 4-12 hrs
Staphylococcus aureus [10] = experiment: Bactericidal activity against Staphylococcus aureus ATCC 25923 assessed as inhibition of bacterial growth at 1 times MIC measured upto 360 mins by time-kill assay; assay type: functional, organism-based
Staphylococcus aureus [11] = experiment: Antibacterial activity against Staphylococcus aureus ATCC 25923 assessed as fold increase in MIC in presence of KCl; assay type: functional
Klebsiella pneumoniae [12] = experiment: Antibacterial activity against Klebsiella pneumoniae ATCC 700603 infected in BALB/c mouse pneumonia model assessed as alveolar expansion at 5 to 10 mg/kg, ip measured at 4 to 12 hrs by hematoxylin and eosin staining based analysis; assay type: functional, organism-based; conditions: dose 5-10 mg/kg, time 4-12 hrs
Staphylococcus aureus [13] = experiment: Antibacterial activity against rifampicin-resistant Staphylococcus aureus ATCC 25923 assessed as reduction in bacterial growth incubated for 18 hrs by broth microdilution method; assay type: functional
Staphylococcus aureus [14] = experiment: Additive antibacterial activity against gentamycin-resistant Staphylococcus aureus ATCC 25923 incubated for 18 hrs in presence of gentamycin by checkerboard assay; assay type: functional, organism-based
Staphylococcus aureus [15] = experiment: Antibacterial activity against Staphylococcus aureus ATCC 25923 assessed as fold increase in MIC in presence of NaCl; assay type: functional
Staphylococcus aureus [16] = experiment: Antimicrobial activity against methicillin-resistant Staphylococcus aureus ATCC 33591 assessed as inhibition of microbial growth incubated for 18 hrs by broth microdilution analysis; assay type: functional, organism-based; conditions: ATCC 33591, 18 h
Escherichia coli [17] = experiment: Inhibition of biofilm formation in Escherichia coli ATCC 25922 assessed as inhibition of biofilm formation at 1/4 times MIC incubated for 24 hrs by crystal violet staining based analysis; assay type: functional, organism-based
Escherichia coli [18] = experiment: Additive antibacterial activity against gentamycin-resistant Escherichia coli ATCC 25922 incubated for 18 hrs by checkerboard assay; assay type: functional, organism-based
Klebsiella pneumoniae [19] = experiment: Antibacterial activity against Klebsiella pneumoniae ATCC 700603 infected in BALB/c mouse pneumonia model assessed as reduction in infiltration of inflammatory cells at 5 to 10 mg/kg, ip measured at 4 to 12 hrs by hematoxylin and eosin staining based analysis; assay type: functional, organism-based; conditions: dose 5-10 mg/kg, time 4-12 hrs
Escherichia coli [20] = experiment: Bactericidal activity against Escherichia coli ATCC 25922 assessed as inhibition of bacterial growth at 1 times MIC measured at 180 mins by time-kill assay; assay type: functional, organism-based
Staphylococcus aureus [21] = experiment: Induction of membrane morphological changes in Staphylococcus aureus ATCC 25923 assessed as appearance of adherent bacterial cells at 4 times MIC measured at 0.5 to 2 hrs by SEM analysis; assay type: functional, organism-based; conditions: time 0.5-2 hrs
Staphylococcus aureus [22] = experiment: Induction of membrane morphological changes in Staphylococcus aureus ATCC 25923 assessed as appearance of broken bacterial cells at 4 times MIC measured at 0.5 to 2 hrs by SEM analysis; assay type: functional, organism-based; conditions: time 0.5-2 hrs
Escherichia coli [23] = experiment: Antibacterial activity against gentamycin-resistant Escherichia coli ATCC 25922 assessed as reduction in bacterial growth incubated for 18 hrs by broth microdilution method; assay type: functional
Escherichia coli [24] = experiment: Bactericidal activity against Escherichia coli ATCC 25922 assessed as inhibition of bacterial growth at 0.5 to 2 times MIC by time-kill assay; assay type: functional, organism-based; conditions: time <= 360.0 min, TDE = time-dependent effect
[25] = Acute toxicity in ip dosed Kunming mouse assessed as lethal dose measured upto 7 days; assay type: organism-based; conditions: in vivo, time < 7 day; for LD50 at 168 h: Kunming
[26] = Acute toxicity in Kunming mouse assessed as survival rate at 20 mg/kg, ip measured for 7 days; assay type: organism-based; conditions: in vivo, 168 h, time 7 day
Enterococcus faecalis = experiment: Antibacterial activity against Enterococcus faecalis ATCC 29212 assessed as bacterial growth inhibition incubated for 18 hrs by broth microdilution method; assay type: functional
Pseudomonas aeruginosa = experiment: Antibacterial activity against Pseudomonas aeruginosa ATCC 27853 assessed as bacterial growth inhibition incubated for 18 hrs by broth microdilution method; assay type: functional
Escherichia coli [27] = experiment: Antimicrobial activity against Escherichia coli ATCC 25922 assessed as reduction in microbial growth measured for 18 hrs in presence of 64 microg/ml LPS; assay type: functional, organism-based
Escherichia coli [28] = experiment: Antibacterial activity against Escherichia coli ATCC 25922 assessed as bacterial growth inhibition incubated for 18 hrs by broth microdilution method; assay type: functional
Staphylococcus aureus [29] = experiment: Antibacterial activity against Staphylococcus aureus ATCC 25923 assessed as fold increase in MIC in presence of FeCl3; assay type: functional
Cell membrane [30] = experiment: Induction of outer membrane permeabilization in Escherichia coli ATCC 25922 assessed as increase in fluorescence intensity at 1 times MIC measured for 12 hrs by NPN uptake assay; assay type: subcellular
Staphylococcus aureus [31] = experiment: Bactericidal activity against Staphylococcus aureus ATCC 25923 assessed as inhibition of bacterial growth at 1/2 times MIC measured upto 360 mins by time-kill assay; assay type: functional, organism-based
Klebsiella pneumoniae [32] = experiment: Antibacterial activity against Klebsiella pneumoniae ATCC 700603 infected in BALB/c mouse pneumonia model assessed as reduction in lung bacterial load at 5 to 10 mg/kg, ip measured at 4 to 12 hrs; assay type: functional, organism-based; conditions: dose 5-10 mg/kg, time 4-12 hrs
Staphylococcus aureus [33] = experiment: Additive antibacterial activity against Staphylococcus aureus ATCC 25923 assessed as bacterial growth inhibition incubated for 18 hrs in presence of rifampicin by checkerboard assay; assay type: functional, organism-based
Escherichia coli [34] = experiment: Additive antibacterial activity against Escherichia coli ATCC 25922 assessed as bacterial growth inhibition incubated for 18 hrs in presence of gentamycin by checkerboard assay; assay type: functional, organism-based
Escherichia coli [35] = experiment: Additive antibacterial activity against Escherichia coli ATCC 25922 assessed as bacterial growth inhibition incubated for 18 hrs in presence of rifampicin by checkerboard assay; assay type: functional, organism-based
Staphylococcus aureus [36] = experiment: Additive antibacterial activity against Staphylococcus aureus ATCC 25923 assessed as bacterial growth inhibition incubated for 18 hrs in presence of gentamycin by checkerboard assay; assay type: functional, organism-based

Structure (SMILES): CCCCCCC(=O)N[C@@H](CCN)C(=O)N[C@H](C(=O)N[C@@H](CCN)C(=O)N[C@H](Cc1ccccc1)C(=O)N[C@@H](CC(C)C)C(=O)N[C@@H](CCN)C(=O)N[C@@H](C(=O)N[C@@H](CC(C)C)C(=O)N[C@@H](Cc1ccc(O)cc1)C(N)=O)C(C)C)[C@@H](C)CC
- Activity (Cell membrane [1]): inactive
- MIC (Staphylococcus aureus [2]): 8 µg/mL (≈ 6.79 µM)
- Activity (Cell membrane [3]): Active
- Activity (Escherichia coli [4]): Active
- MIC (Escherichia coli [5]): < 8 µg/mL
- Activity (Cell membrane [6]): Active
- inhibition (Escherichia coli [7]): Active
- HC10 (Erythrocyte): 512 µg/mL
- Activity (Escherichia coli [8]): Active
- Activity (Klebsiella pneumoniae [9]): Active
- Activity (Staphylococcus aureus [10]): inactive
- fold change (FC) (Staphylococcus aureus [11]): <=2
- Activity (Klebsiella pneumoniae [12]): Active
- MIC (Staphylococcus aureus [13]): < 8 µg/mL
- Activity (Staphylococcus aureus [14]): Active
- fold change (FC) (Staphylococcus aureus [15]): <=2
- EC50 (Staphylococcus aureus [16]): 4.65 µg/mL
- inhibition (Escherichia coli [17]): Active
- Activity (Escherichia coli [18]): Active
- Activity (Klebsiella pneumoniae [19]): Active
- Activity (Escherichia coli [20]): Active
- Activity (Staphylococcus aureus [21]): Active
- Activity (Staphylococcus aureus [22]): Active
- MIC (Escherichia coli [23]): 4 µg/mL (≈ 3.39 µM)
- Activity (Escherichia coli [24]): Tde
- LD50 at 168 h [25]: 32 mg/kg
- Activity [26]: Non-Toxic
- MIC (Enterococcus faecalis): 64 µg/mL (≈ 54.3 µM)
- MIC (Pseudomonas aeruginosa): 4 µg/mL (≈ 3.39 µM)
- Activity (Escherichia coli [27]): Active
- MIC (Escherichia coli [28]): 8 µg/mL (≈ 6.79 µM)
- fold change (FC) (Staphylococcus aureus [29]): <=2
- Activity (Cell membrane [30]): Active
- Activity (Staphylococcus aureus [31]): inactive
- Activity (Klebsiella pneumoniae [32]): Active

Structure (SMILES): CC[C@H](C)[C@@H]1NC(=O)[C@H](CCN)NC(=O)C[C@@H](C(C)C)OC(=O)[C@H]([C@@H](C)O)NC(=O)[C@H](CC(C)C)NC(=O)[C@@H](C(C)C)NC(=O)[C@H](CCN)NC(=O)[C@H](CC(C)C)NC(=O)[C@@H](Cc2ccccc2)NC(=O)[C@H](CCN)NC1=O
- Activity (Cell membrane [1]): inactive
- Activity (Cell membrane [3]): Active
- Activity (Escherichia coli [4]): Active
- Activity (Cell membrane [6]): Active
- inhibition (Escherichia coli [7]): Active
- Activity (Staphylococcus aureus [10]): inactive
- fold change (FC) (Staphylococcus aureus [11]): <=2
- Activity (Staphylococcus aureus [33]): Active
- Activity (Staphylococcus aureus [14]): Active
- fold change (FC) (Staphylococcus aureus [15]): <=2
- Activity (Escherichia coli [34]): Active
- inhibition (Escherichia coli [17]): inactive
- Activity (Staphylococcus aureus [21]): Active
- Activity (Staphylococcus aureus [22]): Active
- Activity (Escherichia coli [24]): Tde
- MIC (Enterococcus faecalis): 16 µg/mL (≈ 14.5 µM)
- Activity (Escherichia coli [35]): Active
- MIC (Pseudomonas aeruginosa): 8 µg/mL (≈ 7.26 µM)
- Activity (Escherichia coli [27]): Active
- MIC (Escherichia coli [28]): 8 µg/mL (≈ 7.26 µM)
- Activity (Staphylococcus aureus [36]): Active
- fold change (FC) (Staphylococcus aureus [29]): <=2
- Activity (Cell membrane [30]): Active
- Activity (Staphylococcus aureus [31]): inactive

Structure (SMILES): CCCCCCCC(=O)N[C@@H](CCN)C(=O)N[C@H](C(=O)N[C@@H](CCN)C(=O)N[C@H](Cc1ccccc1)C(=O)N[C@@H](CC(C)C)C(=O)N[C@@H](CCN)C(=O)N[C@@H](C(=O)N[C@@H](CC(C)C)C(=O)N[C@@H](Cc1ccc(O)cc1)C(N)=O)C(C)C)[C@@H](C)CC
- Activity (Cell membrane [1]): inactive
- MIC (Staphylococcus aureus [2]): 8 µg/mL (≈ 6.71 µM)
- Activity (Cell membrane [3]): Active
- Activity (Escherichia coli [4]): Active
- MIC (Escherichia coli [5]): < 8 µg/mL
- Activity (Cell membrane [6]): Active
- inhibition (Escherichia coli [7]): Active
- HC10 (Erythrocyte): 128 µg/mL
- Activity (Escherichia coli [8]): Active
- Activity (Klebsiella pneumoniae [9]): Active
- Activity (Staphylococcus aureus [10]): inactive
- fold change (FC) (Staphylococcus aureus [11]): <=2
- Activity (Staphylococcus aureus [33]): Active
- Activity (Klebsiella pneumoniae [12]): Active
- MIC (Staphylococcus aureus [13]): < 8 µg/mL
- fold change (FC) (Staphylococcus aureus [15]): <=2
- Activity (Escherichia coli [34]): Active
- EC50 (Staphylococcus aureus [16]): 2.99 µg/mL
- inhibition (Escherichia coli [17]): inactive
- Activity (Escherichia coli [18]): Active
- Activity (Klebsiella pneumoniae [19]): Active
- Activity (Escherichia coli [20]): Active
- Activity (Staphylococcus aureus [21]): Active
- Activity (Staphylococcus aureus [22]): Active
- MIC (Escherichia coli [23]): 2 µg/mL (≈ 1.68 µM)
- Activity (Escherichia coli [24]): Tde
- LD50 at 168 h [25]: 33.6 mg/kg
- LD ([25]; ip, 168 h): 80 mg/kg
- Activity [26]: Non-Toxic
- MIC (Enterococcus faecalis): 16 µg/mL (≈ 13.4 µM)
- Activity (Escherichia coli [35]): Active
- MIC (Pseudomonas aeruginosa): 4 µg/mL (≈ 3.35 µM)
- MIC (Escherichia coli [28]): 4 µg/mL (≈ 3.35 µM)
- Activity (Staphylococcus aureus [36]): Active
- fold change (FC) (Staphylococcus aureus [29]): <=2
- Activity (Cell membrane [30]): inactive
- Activity (Staphylococcus aureus [31]): inactive
- Activity (Klebsiella pneumoniae [32]): Active
